Columns and labels:
[1] = Fluorescence of modified Rhodamine dyes (spectrometry and spectrofluorometry); format: physicochemical
Procedure: Modified Rhodamine dyes were evaluated using both conventional spectrometry and spectrofluorometry. For both types of analysis the dyes were dissolved in either methanol or 50 mM Tris at final dye concentrations ranging from 10 nM to 100 μM. An absorbance spectrum from wavelengths of 200 nm to 700 nm was determined for each dye using a Beckman DU-7000 spectrophotometer. The dyes all had absorbance peaks at around 470 to 480 nm. This wavelength was chosen as the fluorescence excitation wavelength and a full fluorescence emission spectrum was determined using a Hitachi F-2000 spectrofluorometer. For each dye, the emission peak was around 520 nm and the fluorescent output was measured under the conditions tested (see Table 1).

HL-60 cells = assay: Uptake and retention of modified Rhodamine dyes by HL-60 cells (epifluorescence microscopy); format: cell-based; conditions: 10 μM or 50 μM dye; for staining of HL-60 cells: 37° C., serum-free Iscove's medium; for leakage of the dye into the medium / retention in cells: after washing
Procedure: HL-60 cells were placed in 5 ml of Iscove's medium (without serum or phenol-red) containing 10 μM or 50 μM N-octyloxycarbonyl-Rhodamine 110, N-decyloxycarbonyl-Rhodamine-110, N-dodecyloxycarbonyl-Rhodamine-110, N-hexyloxycarbonyl-Rhodamine-110, N-(ethylthio)carbonyl-Rhodamine 110 or Rhodamine 110. The cells were incubated for varying times at 37° C. in a CO2 incubator, recovered by centrifugation, and washed in 50 mL of ice-cold medium. The cells were re-centrifuged and the final pellet was resuspended in 50 μL of fresh medium. Aliquots of each cell suspension were placed in microslides and viewed on a Nikon inverted microscope with epifluorescent illumination.

COCCOCCOCCOC(=O)Nc1ccc2c(c1)Oc1cc(N)ccc1C21OC(=O)c2ccccc21 (stereo not drawn) [N-(2,5,8-Trioxadecyloxycarbonyl)-Rhodamine 110]
Peak Emission Wavelength ([1]; Test Conc. 1 μM, Tris): 520 nm
Peak Excitation Wavelength ([1]; Test Conc. 1 μM, Tris): 485 nm
Signal Amplitude ([1]; Test Conc. 1 μM, Tris): 2841

CCCCOCCOC(=O)Nc1ccc2c(c1)Oc1cc(N)ccc1C21OC(=O)c2ccccc21 (stereo not drawn) [N-(2-Butoxyethoxy)carbonyl-Rhodamine 110, N-(2-Butoxyethoxycarbonyl)-Rhodamine 110]
Peak Emission Wavelength ([1]; Test Conc. 1 μM, Tris): 520 nm
Peak Excitation Wavelength ([1]; Test Conc. 1 μM, Tris): 470 nm
Signal Amplitude ([1]; Test Conc. 1 μM, Tris): 2047

CCSC(=O)Nc1ccc2c(c1)Oc1cc(N)ccc1C21OC(=O)c2ccccc21 (stereo not drawn) [N-(Ethylthio)carbonyl-Rhodamine 110]
Peak Emission Wavelength ([1]; Test Conc. 1 μM, Tris): 520 nm
Peak Excitation Wavelength ([1]; Test Conc. 1 μM, Tris): 490 nm
Signal Amplitude ([1]; Test Conc. 1 μM, Tris): 2430
staining of HL-60 cells (HL-60 cells): moderate, but still easily detectable staining
leakage of the dye into the medium / retention in cells (HL-60 cells): slight leakage

CCCCCCSC(=O)Nc1ccc2c(c1)Oc1cc(N)ccc1C21OC(=O)c2ccccc21 (stereo not drawn) [N-(Hexylthio)carbonyl-Rhodamine 110]
Peak Emission Wavelength ([1]; Test Conc. 1 μM, MeOH): 530 nm
Peak Excitation Wavelength ([1]; Test Conc. 1 μM, MeOH): 490 nm
Signal Amplitude ([1]; Test Conc. 1 μM, MeOH): 650

CCCCCCN(C)C(=O)Nc1ccc2c(c1)Oc1cc(N)ccc1C21OC(=O)c2ccccc21 (stereo not drawn) [N-(N-Hexyl-N-methylcarbamyl)-Rhodamine 110]
Peak Emission Wavelength ([1]; Test Conc. 1 μM, Tris): 520 nm
Peak Excitation Wavelength ([1]; Test Conc. 1 μM, Tris): 470 nm
Signal Amplitude ([1]; Test Conc. 1 μM, Tris): 1466

CCCCCCCCSC(=O)Nc1ccc2c(c1)Oc1cc(N)ccc1C21OC(=O)c2ccccc21 (stereo not drawn) [N-(Octylthio)carbonyl-Rhodamine 110, N-(Octylthio)carbonyl Rhodamine 110]
Peak Emission Wavelength ([1]; Test Conc. 1 μM, MeOH): 520 nm
Peak Excitation Wavelength ([1]; Test Conc. 1 μM, MeOH): 470 nm
Signal Amplitude ([1]; Test Conc. 1 μM, MeOH): 471

CCCCCCCCCCOC(=O)Nc1ccc2c(c1)Oc1cc(N)ccc1C21OC(=O)c2ccccc21 (stereo not drawn) [N-Decyloxycarbonyl-Rhodamine 110, N-Decyloxycarbonyl-Rhodamine-110]
Peak Emission Wavelength ([1]; Test Conc. 1 μM, MeOH): 520 nm
Peak Excitation Wavelength ([1]; Test Conc. 1 μM, MeOH): 475 nm
Signal Amplitude ([1]; Test Conc. 1 μM, MeOH): 827
staining of HL-60 cells (HL-60 cells): stained HL-60 cells intensely
leakage of the dye into the medium / retention in cells (HL-60 cells): almost no leakage of the dye into the medium

CN(C)C(=O)Nc1ccc2c(c1)Oc1cc(N)ccc1C21OC(=O)c2ccccc21 (stereo not drawn) [N-Dimethylcarbamyl-Rhodamine-110, N-Dimethylcarbamyl-Rhodamine 110]
Peak Emission Wavelength ([1]; Test Conc. 0.1 μM, Tris): 520 nm
Peak Excitation Wavelength ([1]; Test Conc. 0.1 μM, Tris): 490 nm
Signal Amplitude ([1]; Test Conc. 0.1 μM, Tris): 446

CCCCCCCCCCCCOC(=O)Nc1ccc2c(c1)Oc1cc(N)ccc1C21OC(=O)c2ccccc21 (stereo not drawn) [N-Dodecyloxycarbonyl-Rhodamine 110, N-Dodecyloxycarbonyl-Rhodamine-110]
Peak Emission Wavelength ([1]; Test Conc. 1 μM, MeOH): 520 nm
Peak Excitation Wavelength ([1]; Test Conc. 1 μM, MeOH): 480 nm
Signal Amplitude ([1]; Test Conc. 1 μM, MeOH): 640
staining of HL-60 cells (HL-60 cells): stained HL-60 cells intensely
leakage of the dye into the medium / retention in cells (HL-60 cells): almost no leakage of the dye into the medium

CCOC(=O)Nc1ccc2c(c1)Oc1cc(N)ccc1C21OC(=O)c2ccccc21 (stereo not drawn) [N-Ethoxycarbonyl-Rhodamine 110]
Peak Emission Wavelength ([1]; Test Conc. 1 μM, Tris): 520 nm
Peak Excitation Wavelength ([1]; Test Conc. 1 μM, Tris): 485 nm
Signal Amplitude ([1]; Test Conc. 1 μM, Tris): 3070

COC(=O)Nc1ccc2c(c1)Oc1cc(N)ccc1C21OC(=O)c2ccccc21 (stereo not drawn) [N-Methoxycarbonyl-Rhodamine 110]
Peak Emission Wavelength ([1]; Test Conc. 0.1 μM, Tris): 520 nm
Peak Excitation Wavelength ([1]; Test Conc. 0.1 μM, Tris): 470 nm
Signal Amplitude ([1]; Test Conc. 0.1 μM, Tris): 254

CS(=O)(=O)Nc1ccc2c(c1)Oc1cc(N)ccc1C21OC(=O)c2ccccc21 (stereo not drawn) [N-Methylsulfonyl-Rhodamine-110, N-Methylsulfonyl-Rhodamine 110]
Peak Emission Wavelength ([1]; Test Conc. 1 μM, Tris): 520 nm
Peak Excitation Wavelength ([1]; Test Conc. 1 μM, Tris): 485 nm
Signal Amplitude ([1]; Test Conc. 1 μM, Tris): 988

N-Acetyl-Rhodamine 116
Peak Emission Wavelength ([1]; Test Conc. 1 μM, Tris): 530 nm
Peak Excitation Wavelength ([1]; Test Conc. 1 μM, Tris): 470 nm
Signal Amplitude ([1]; Test Conc. 1 μM, Tris): 644
